Measured values reported in ChEMBL document CHEMBL3885881, “DrugMatrix”.

Species: Rattus norvegicus
Test: DrugMatrix - Regimen: Daily Repeat
Type: toxicity, organism-based, Sprague-Dawley
Parameters: regimen Daily Repeat, gender Male, age 6-8 weeks
Settings: in vivo, po, route oral GAVAGE, vehicle 100 % WATER; for ABSOLUTE BASOPHIL / ABSOLUTE EOSINOPHIL / ABSOLUTE LYMPHOCYTE / ABSOLUTE MONOCYTE / ABSOLUTE SEGMENTED NEUTROPHIL / BASOPHIL / EOSINOPHIL / ERYTHROCYTE COUNT / HEMATOCRIT / HEMOGLOBIN / LEUKOCYTE COUNT / LYMPHOCYTE / MEAN CORPUSCULAR HEMOGLOBIN / MEAN CORPUSCULAR HEMOGLOBIN CONCENTRATION / MEAN CORPUSCULAR VOLUME / MONOCYTE / NEUTROPHIL / NUCLEATED RED BLOOD CELLS / PLATELET COUNT: tissue Blood; for ALANINE AMINOTRANSFERASE / ALBUMIN / ALKALINE PHOSPHATASE / ASPARTATE AMINOTRANSFERASE / BLOOD UREA NITROGEN / CARBON DIOXIDE / CHLORIDE / CHOLESTEROL / CREATINE PHOSPHOKINASE / CREATININE / GLUCOSE / LACTATE DEHYDROGENASE / LIPASE / PHOSPHORUS / POTASSIUM / SODIUM / TOTAL BILIRUBIN / TOTAL PROTEIN / URIC ACID: tissue Plasma
[1] = 20 mg/kg, 120 h, dose level Low, time 5 day
[2] = 70 mg/kg, 72 h, dose level High, time 3 day
[3] = 70 mg/kg, 120 h, dose level High, time 5 day

## CCCC(C)C1(CC)C(=O)NC(=O)NC1=O (centres undefined) [PENTOBARBITAL]
[1]
  ABSOLUTE BASOPHIL: 0 CELLS/uL
  ABSOLUTE EOSINOPHIL: 0 CELLS/uL
  ABSOLUTE LYMPHOCYTE: 9855 CELLS/uL
  ABSOLUTE MONOCYTE: 58 CELLS/uL
  ABSOLUTE SEGMENTED NEUTROPHIL: 1187 CELLS/uL
  BASOPHIL: 0%
  EOSINOPHIL: 0%
  ERYTHROCYTE COUNT: 5.44 x10E6/uL
  HEMATOCRIT: 34.1%
  HEMOGLOBIN: 13.23 G/DL
  LEUKOCYTE COUNT: 11.1 x10E3/uL
  LYMPHOCYTE: 89%
  MEAN CORPUSCULAR HEMOGLOBIN: 24.33 pg
  MEAN CORPUSCULAR HEMOGLOBIN CONCENTRATION: 38.83 G/DL
  MEAN CORPUSCULAR VOLUME: 62.67 fL
  MONOCYTE: 0.67%
  NEUTROPHIL: 10.33%
  NUCLEATED RED BLOOD CELLS: 0 /100WBC
  PLATELET COUNT: 1231.67 x10E3/uL
  ALANINE AMINOTRANSFERASE: 60.33 u/L
  ALBUMIN: 3.8 G/DL
  ALKALINE PHOSPHATASE: 346 u/L
  ASPARTATE AMINOTRANSFERASE: 88.33 u/L
  BLOOD UREA NITROGEN: 17 mg/dL
  CARBON DIOXIDE: 32.67 mmol/L
  CHLORIDE: 99.33 MEQ/L
  CHOLESTEROL: 71.67 mg/dL
  CREATINE PHOSPHOKINASE: 344.67 u/L
  CREATININE: 0.19 mg/dL
  GLUCOSE: 155 mg/dL
  LACTATE DEHYDROGENASE: 163 u/L
  LIPASE: 8.67 u/L
  PHOSPHORUS: 11.17 mg/dL
  POTASSIUM: 5.63 MEQ/L
  SODIUM: 145.17 MEQ/L
  TOTAL BILIRUBIN: 0.17 mg/dL
  TOTAL PROTEIN: 5.63 G/DL
  URIC ACID: 0.67 mg/dL
[2]
  ABSOLUTE BASOPHIL: 0 CELLS/uL
  ABSOLUTE EOSINOPHIL: 29 CELLS/uL
  ABSOLUTE LYMPHOCYTE: 9707 CELLS/uL
  ABSOLUTE MONOCYTE: 106.67 CELLS/uL
  ABSOLUTE SEGMENTED NEUTROPHIL: 824 CELLS/uL
  BASOPHIL: 0%
  EOSINOPHIL: 0.33%
  ERYTHROCYTE COUNT: 5.46 x10E6/uL
  HEMATOCRIT: 34.73%
  HEMOGLOBIN: 13.4 G/DL
  LEUKOCYTE COUNT: 10.67 x10E3/uL
  LYMPHOCYTE: 91%
  MEAN CORPUSCULAR HEMOGLOBIN: 24.57 pg
  MEAN CORPUSCULAR HEMOGLOBIN CONCENTRATION: 38.63 G/DL
  MEAN CORPUSCULAR VOLUME: 63.53 fL
  MONOCYTE: 1%
  NEUTROPHIL: 7.67%
  NUCLEATED RED BLOOD CELLS: 0 /100WBC
  PLATELET COUNT: 792 x10E3/uL
  ALANINE AMINOTRANSFERASE: 58 u/L
  ALBUMIN: 4.2 G/DL
  ALKALINE PHOSPHATASE: 300.33 u/L
  ASPARTATE AMINOTRANSFERASE: 75.67 u/L
  BLOOD UREA NITROGEN: 13 mg/dL
  CARBON DIOXIDE: 34.67 mmol/L
  CHLORIDE: 101.33 MEQ/L
  CHOLESTEROL: 81.33 mg/dL
  CREATINE PHOSPHOKINASE: 230 u/L
  CREATININE: 0.16 mg/dL
  GLUCOSE: 139 mg/dL
  LACTATE DEHYDROGENASE: 113.33 u/L
  LIPASE: 9 u/L
  PHOSPHORUS: 11.77 mg/dL
  POTASSIUM: 6.23 MEQ/L
  SODIUM: 146.57 MEQ/L
  TOTAL BILIRUBIN: 0.2 mg/dL
  TOTAL PROTEIN: 6.17 G/DL
  URIC ACID: 0.73 mg/dL
[3]
  ABSOLUTE BASOPHIL: 0 CELLS/uL
  ABSOLUTE EOSINOPHIL: 23.33 CELLS/uL
  ABSOLUTE LYMPHOCYTE: 7811.33 CELLS/uL
  ABSOLUTE MONOCYTE: 0 CELLS/uL
  ABSOLUTE SEGMENTED NEUTROPHIL: 598.67 CELLS/uL
  BASOPHIL: 0%
  EOSINOPHIL: 0.33%
  ERYTHROCYTE COUNT: 5.7 x10E6/uL
  HEMATOCRIT: 36%
  HEMOGLOBIN: 13.73 G/DL
  LEUKOCYTE COUNT: 8.43 x10E3/uL
  LYMPHOCYTE: 92.33%
  MEAN CORPUSCULAR HEMOGLOBIN: 24.1 pg
  MEAN CORPUSCULAR HEMOGLOBIN CONCENTRATION: 38.17 G/DL
  MEAN CORPUSCULAR VOLUME: 63.17 fL
  MONOCYTE: 0%
  NEUTROPHIL: 7.33%
  NUCLEATED RED BLOOD CELLS: 0 /100WBC
  PLATELET COUNT: 1184.67 x10E3/uL
  ALANINE AMINOTRANSFERASE: 60 u/L
  ALBUMIN: 4.2 G/DL
  ALKALINE PHOSPHATASE: 346 u/L
  ASPARTATE AMINOTRANSFERASE: 81 u/L
  BLOOD UREA NITROGEN: 14 mg/dL
  CARBON DIOXIDE: 33 mmol/L
  CHLORIDE: 99 MEQ/L
  CHOLESTEROL: 74.33 mg/dL
  CREATINE PHOSPHOKINASE: 461.33 u/L
  CREATININE: 0.13 mg/dL
  GLUCOSE: 131.67 mg/dL
  LACTATE DEHYDROGENASE: 142.67 u/L
  LIPASE: 11.67 u/L
  PHOSPHORUS: 10.57 mg/dL
  POTASSIUM: 5.73 MEQ/L
  SODIUM: 145.3 MEQ/L
  TOTAL BILIRUBIN: 0.2 mg/dL
  TOTAL PROTEIN: 6.17 G/DL
  URIC ACID: 0.53 mg/dL
